The text below walks through data of publication PMC3821907, “Synthesis of Novel Compounds as New Potent Tyrosinase Inhibitors” (BioMed Research International, 2013).

The target of data set [1] is mushroom tyrosinase. The data set is described as follows: Tyrosinase inhibition assay (diphenolase activity, L-DOPA substrate). Format: biochemical. The conditions noted are these: L-DOPA 0.5 mM, pH 6.8, 25°C, mean ± SEM, read-out: IC50 ± SEM, tyrosinase inhibitory activity. How it is done: The spectrophotometric assay for tyrosinase was performed according to the method Ref 15. Briefly, all the synthesized compounds were screened for the diphenolase inhibitory activity of tyrosinase using L-DOPA as substrate. All the compounds were dissolved in DMSO. The final concentration of DMSO in the test solution was 2.0%. Phosphate buffer, pH=6.8, was used to dilute the DMSO stock solution of test compounds. Thirty units of mushroom tyrosinase (0.5 mg/mL) were first preincubated with the compounds, in 50 mM phosphate buffer (pH 6.8), for 10 min at 25°C. Then the L-DOPA (0.5 mM) was added to the reaction mixture, and the enzyme reaction was monitored by measuring the change in absorbance at 475 nm of formation of the L-DOPA chrome for 10 min. The measurement was performed in triplicate for each concentration and averaged before further calculation. […] The percent of inhibition of tyrosinase reaction was calculated as the following: Inhibition (%) = [B−S/B] × 100. Here, the B and S are the absorbances for the blank and samples.

The subject of data set [2] is B16F10 mouse melanoma cells. The data set is described as follows: Inhibition of melanin production. It counts as cell-based. As to conditions: 72 h; for inhibition at 20 µg/mL: B16-F10, 20 μg/mL. How it is done:
(§1) Also inhibitions of the compounds 5a–5f were tested on melanin production and their cytotoxicity on B16F10 mouse melanoma cells at concentrations of 20 μg/mL.
Melanin production inhibition was ascertained by method of Wang et al.. A total of 8 × 10^4 cells were added to 60 mm plates and were incubated at 37°C in a CO2 incubator, then, 10 μL test samples in DMSO were added to plates and were incubated for 72 hours at 37°C in a CO2 incubator. After washing with PBS, cells were destroyed with 1 mL of 1 N NaOH, and 200 μL portions of raw cell extracts were moved to 96-well plates. Melanin production inhibition was determined by recording absorbance at 495 nm. The effects of test samples on melanin contents are stated as percent inhibitions of the value obtained in B16F10 mouse melanoma cells which were cultured with DMSO alone.

Data set [3] is described as follows: Cytotoxicity assay (MTT). It counts as cell-based. The conditions noted are these: B16F10 mouse melanoma cells, read-out: Cytotoxicity cell viability (%). How it is done:
as §1
Cytotoxicity assays were performed using a microculture MTT method described by Han et al.. A B16F10 mouse melanoma cell suspension was poured into a 96-well plate (10^3 cells/well), and cells were allowed to completely stick […] overnight. Test samples were then added to the plate and were incubated at 37°C for 72 h in a CO2 incubator. 20 μL of MTT solution (2 mg/mL) was then added per well and incubated for 4 hours. Supernatant was then removed, and formazan was solubilized by adding 150 μL DMSO to each well with mild shaking. Absorbance at 490 nm was recorded using an ELISA plate reader.

Consider `Cc1ccc(SC(=O)/C(=C\c2ccc(F)cc2)NC(=O)c2ccc(/N=N/c3ccc(N(C)C)cc3)cc2)c(S)c1` [Compound 5a, 4-Methyl-2-sulfanylphenyl(E)-2-[(4-{(E)-2-[4-(dimethylamino)phenyl]-1-diazenyl}benzoyl)amino]-3-(4-fluorophenyl)-2-propenethioate], for which the melting point was 293 °C (dec.). The IC50 in data set [1] was 4390 ± 760 nM. In addition, at 20 µg/mL the inhibition in data set [2] was 42.1 ± 0.75%. The viability at 72 h, 20 μg/mL in data set [3] came to 82.2 ± 3.55%.
The matching figures for `Cc1ccc(SC(=O)/C(=C\c2ccc(OC(F)(F)F)cc2)NC(=O)c2ccc(/N=N/c3ccc(N(C)C)cc3)cc2)c(S)c1` [Compound 5b, 4-Methyl-2-sulfanylphenyl(E)-2-[(4-{(E)-2-[4-(dimethylamino)phenyl]-1-diazenyl}benzoyl)amino]-3-[4-(trifluoromethoxy)phenyl]-2-propenethioate]: 286 °C (dec.), 3860 ± 660 nM, 41 ± 4.33% and 80.1 ± 1.89%.
The matching figures for `CC(=O)Oc1c(/N=N/c2ccc(C(=O)N/C(=C/c3ccc(F)cc3)C(=O)Sc3ccc(C)cc3S)cc2)ccc2ccccc12` [Compound 5c, 2-[(E)-2-(4-{[((E)-2-(4-fluorophenyl)-1-{[(4-methyl-2-sulfanylphenyl)sulfanyl]carbonyl}-1-ethenyl)amino]carbonyl}phenyl)-1-diazenyl]-1-naphthyl Acetate]: 308 °C (dec.), 2680 ± 550 nM, 35.9 ± 3.11% and 83.2 ± 2.22%.
The matching figures for `CC(=O)Oc1c(/N=N/c2ccc(C(=O)N/C(=C/c3ccc(OC(F)(F)F)cc3)C(=O)Sc3ccc(C)cc3S)cc2)ccc2ccccc12` [Compound 5d, 2-((E)-2-{4-[({(E)-1-{[(4-Methyl-2-sulfanylphenyl)sulfanyl]carbonyl}-2-[4-(trifluoromethoxy)phenyl]-1-ethenyl}amino)carbonyl]phenyl}-1-diazenyl)-1-naphthyl Acetate]: 318 °C (dec.), 2480 ± 880 nM, 37.5 ± 4.09% and 84.7 ± 5.38%.
On to `CC(=O)Oc1ccc2ccccc2c1/N=N/c1ccc(C(=O)N/C(=C/c2ccc(F)cc2)C(=O)Sc2ccc(C)cc2S)cc1` [Compound 5e, 1-[(E)-2-(4-{[((E)-2-(4-fluorophenyl)-1-{[(4-methyl-2-sulfanylphenyl)sulfanyl]carbonyl}-1-ethenyl)amino]carbonyl}phenyl)-1-diazenyl]-2-naphthyl Acetate], for which the melting point is 325 °C (dec.). Further, the IC50 in data set [1] was 1980 ± 390 nM. Further, the inhibition at 20 µg/mL in data set [2] is 36.8 ± 1.44%. In data set [3], the viability at 72 h, 20 μg/mL amounted to 81.9 ± 1.08%.
For the compound `CC(=O)Oc1ccc2ccccc2c1/N=N/c1ccc(C(=O)N/C(=C/c2ccc(OC(F)(F)F)cc2)C(=O)Sc2ccc(C)cc2S)cc1` [Compound 5f, 1-((E)-2-{4-[({(E)-1-{[(4-Methyl-2-sulfanylphenyl)sulfanyl]carbonyl}-2-[4-(trifluoromethoxy)phenyl]-1-ethenyl}amino)carbonyl]phenyl}-1-diazenyl)-2-naphthyl Acetate], the melting point is 320 °C (dec.). The half-inhibitory concentration (IC50) in data set [1] was determined as 1710 ± 490 nM. The compound further gave an inhibition at 20 µg/mL in data set [2] of 34.7 ± 2.22%. The viability at 72 h, 20 μg/mL in data set [3] came out at 80.6 ± 2.65%.
`O=c1cc(CO)occ1O` [Kojic acid, reference compound] yielded an inhibition at 200 µg/mL in data set [2] (B16-F10, tested at 200 µg/mL) of 17.3 ± 1.29%. Also, the viability at 72 h, 200 µg/mL in data set [3] (tested at 200 µg/mL) was 81.7 ± 1.23%.

Broadly, the IC50 is the concentration that inhibits the measured activity by half. The term inhibition denotes the relative decrease from the control value, in per cent. A high value points to a strong effect. By viability is commonly meant a read-out of living cells in per cent, often relative to untreated cells. As a reminder, the melting point is the temperature of the solid-liquid transition.
